Assays:
[1] = system: IDO1 expression in THP-1 cells; assay: IDO1 expression in THP-1 cells by PCR / quantitative real-time PCR; format: cell-based, human; conditions: for IDO1 expression (relative value): zebularine 100 uM, interferon gamma 200 IU/ml, alone or both together, FIG. 1
Experimental: (§1) THP-1 (ATCC: TIB-202) is a human monocytic cell line that originates from an acute monocytic leukemia. It has the phenotype of monocytes but can be differentiated to a more dendritic phenotype. In the current study, the THP-1 cells were in vitro passaged in RPMI 1640 medium supplemented with 5% or 10% FCS, 10 mM Hepes, 1 mM Sodium pyruvate, and 50 ug/ml gentamicin (R5 or R10 medium respectively). The cell density was adjusted to 200 000 cells per ml, and the cultures were incubated for four to seven days at 37° C. with 10% CO2 in a humidified incubator. The substance, or combination of substances, being studied, were added to the medium at specified time points and in the case of IFN-gamma removed from medium as indicated. 96-168 hours after initiation of treatment, the IDO expression was assessed by PCR or by Quantitative PCR (Roche). RNA was extracted from cells cultured in flasks or six-well plates using Trizol reagent according to Invitrogen's protocol. Residual DNA was removed through Rnase free DNase (Roche Applied Science) treatment. Quality and quantity of the isolated RNA was measured by spectrophotometer and gel electrophoresis.
Quantitative real-time PCR analyses (qRT-PCR) were performed using Super-Script III Platinum Two-Step qRT-PCR Kit with SYBR Green (Invitrogen). A total of 100-500 ng total RNA was used in a 20 ul RT reaction using a mixture of polydT and random hexamer primers. The cDNA obtained was diluted to a total volume of 80 ul and stored at −20° C. The primer sequences for the different genes were designed using Gene Fisher software support (G. Giegerich, F. Meyer, C. Schleiermacher, ISMB-96). The primers used for amplification of the IDO gene were: Forward: SEQ ID NO: 5—5′-[…]-3′, Primer sequences, Reverse: SEQ ID NO: 6—TTTCACA-CAGGCGTCATAAGCT-3′.
Hypoxanthine guanine phosphoribosyl transferase (HPRT) HPRT Forward: SEQ ID NO: 7—5′-[…]-3′, HPRT Reverse: SEQ ID NO: 8—5′-[…]-3′ according to the cDNA sequence, were used. The qRT-PCR was performed in 20 ul reaction consisting of 2 ul diluted cDNA (12.5 ng), 0.3 uM of each primer, 1 ul bovine serum albumin (50 ug/ml), and 10 ul Platinum SYBR Green qRT-PCR superMix-UDG. The amplification of IDO was carried out in a Light Cycler (Roche Molecular Biochemicals) with the following thermal profile: Platinum SYBR Green qRT-PCR superMix-UDG incubation at 50° C. for 2 min, then denaturing at 95° C. for 5 min, followed by 45 cycles at 94° C. for 2 s, 58° C. for 10 s, and 72° C. for 14 s. The amplification of HPRT was carried out as follows, UDG incubation at 50° C. for 2 min, denaturing at 95° C. for 5 min, followed by 45 cycles at 94° C. for 2 s, 55° C. for 10 s, and 72° C. for 14 s. After amplification a melting curve analysis was performed. The qRT-PCR experiments were always run in triplicate.

[2] = system: allotransplanted Lewis rat pancreatic islets; assay: Rejection of allotransplanted pancreatic islets beneath the kidney capsule (blood glucose follow up); format: in vivo; conditions: Fischer 344 rats, 225 mg/kg intraperitoneal daily for 14 days starting 6-8 days after transplantation, FIG. 16
Experimental: Pancreatic islets were isolated from the pancreas of Lewis rats by established technique. After culture at 37° C. over night, 500-1200 islets were implanted beneath the kidney capsule of adult (11-14 weeks old) Fischer 344 rats that were confirmed hyperglucemic (blood glucose >20 mMol/L) after having received a single dose of 35-40 mg/kg intraperitoneally of Streptozotocine, which is selectively toxic to the insulin producing beta cells present in the pancreatic islets. […] The two exceptional rats that maintained a normal blood sugar were subjected to nephrectomy 40 and 43 days after transplantation to check whether their normal blood glucose was a result of unexpected sustained survival of the grafted islets (in which case their blood sugar should promptly increase upon removal of the graft) or was due to a recovery of some Streptozotocine-damaged pancreatic islets (in which case their blood sugar should stay normal despite removal of the graft). […] Twenty two days after transplantation only 1/10 of the zebularine treated rats had rejected the graft as indicated by a normal blood sugar in all but this single rat at completion of the treatment 20-22 days after transplantation and in all of 7 analyzed >1 week after the zebularine treatment was stopped (FIG. 16).

[3] = system: IDO1 expression in THP-1 cells; assay: IDO1 expression in THP-1 cells by reverse transcriptase PCR (bands), kinetics; format: cell-based, human
Experimental: as §1
The sequences of forward primers and reverse primers for the human IDO-1 gene analyzed and the house-keeping gene HPRT respectively, were: IDO-1 forward: 5′-[…]-3′, reverse: 5′-C AGAC AAAT AT A TGCGAAGAAC; HPRT Forward: 5′-[…]-3′, HPRT Reverse: 5′-ACTAAGCAGATGGCCAC AGAA-3′. The PCR conditions were set as follows: 1 denaturing cycle at 94° C. for 2 min followed by 40 cycles (for the IDO-1) or 30 cycles (for the HPRT) at 94° C. for 15 s, 53° C. for 30 s, and 72° C. for 30 s with a final extension reaction at 72° C. for 5 min.
Materials and methods used were the same as described in Example 1 above. […] In panel B, the THP-1 cells were given zebularine alone during 5 days and a weak band was detected. […] In panel C the THP-1 cells were exposed to zebularine for 6 days and interferon gamma was given during 24 hours after four days and the cells were harvested after a total of 6 days. […]

[4] = IFN-g 100 iu/ml or IFN-A alone for 24 h (day 4), FIG. 11
[5] = IFN-g 100 iu/ml or interferon A 25 ng/ml alone for 24 h (day 4), FIG. 12

Compound | IDO1 expression (relative value) [1] | rats that had rejected the graft twenty two days after transplantation [2] | IDO1 expression after 168 h of culture [1, 4] | IDO1 expression after 168 h of culture [1, 5] | course of IDO1 induction after the first 24 hours ([1]; interferon gamma 200 IU/ml initial 24 h, alone or with zebularine 100 uM for the entire period, harvest 48-96 h, FIG. 5) | IDO1 expression after 10, 12 or 14 days of culture ([1]; interferon gamma 200 iu/ml alone for 24 h on day 4, FIG. 10) | IDO1 induction after 24 hours ([1]; zebularine 100 uM or interferon gamma 200 IU/ml alone, harvest 24 h, FIG. 5) | IDO1 expression (RT-PCR band), panel B ([3]; zebularine 5 days, interferon gamma after 3 days for 24 h, tested 24 hours after removal, FIG. 6B) | IDO1 expression (RT-PCR band), panel C ([3]; zebularine 6 days, interferon gamma 24 hours after four days, harvest after 6 days, FIG. 6C) | IDO1 expression (RT-PCR band), panel A ([3]; zebularine four days, interferon gamma added after 3 days, 24 hours before harvest, FIG. 6A)
O=c1ncccn1[C@@H]1O[C@H](CO)[C@@H](O)[C@H]1O [zebularine, reference compound] | 9 | 1/10 |  |  |  |  |  |  |  | 
interferon A |  |  | minimal | minimal |  |  |  |  |  | 
interferon gamma: interferon gamma (Sigma), IDO inducer | 80 |  | minimal | minimal | not sustained and dropped rapidly | minimal | strong | weak band | almost no IDO1 induction | strong band
